Data: patent publication US20260176289A1, “SMALL MOLECULE INHIBITORS OF KRAS PROTEINS” (Merck Sharp & Dohme LLC, priority 2022, published 2026)
Like-named read-outs stand apart in the source and are kept apart here.

How the values were obtained:
KRAS-WT = KRAS-WT (Homo sapiens, UniProt P01116); test: SOS-catalyzed nucleotide exchange assay (Procedure A, TR-FRET), KRAS-WT; format: biochemical; details: nucleotide exchange, read-out: KRAS WT GNE IC50
Outline: (§1)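 Signal ratio (520/495 nm, excitation 340 nm) reports Bodipy-GDP retention on biotinylated RAS after SOS-catalyzed exchange with 3 mM GTP. SOS was 40 nM, except 160 nM for G12V. Room-temperature exchange lasted 60 min (90 min for G12V), following a 60 min compound preincubation.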

KRAS-G12D = KRAS-G12D (Homo sapiens, UniProt P01116, G12D); test: SOS-catalyzed nucleotide exchange assay (Procedure A, TR-FRET), KRAS-G12D; format: biochemical; details: nucleotide exchange, read-out: KRAS G12D GNE IC50
Outline: as §1

KRAS-G12V = KRAS-G12V (Homo sapiens, UniProt P01116, G12V); test: SOS-catalyzed nucleotide exchange assay (Procedure A, TR-FRET), KRAS-G12V; format: biochemical; details: nucleotide exchange, read-out: KRAS G12V GNE IC50
Outline: as §1

AsPC-1 cells = test: Cellular phospho-ERK assay, AsPC-1 cells (homozygous KRAS-G12D); format: cell-based; details: Homo sapiens, ASPC1, 2 h, read-out: AsPC1 pERK IC50
Outline: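 Cells were seeded overnight, then treated 2 h at 37° C with compound in a 10-point, 1:3 titration from 30 μM top final concentration. Lysates were assayed by AlphaLISA SureFire Ultra for p-ERK and total ERK. IC50 came from a 4-parameter logistic fit of the p-ERK/total ERK ratio.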

KRAS-G12V, sequence (P01116 with tags, fused parts or gaps isoform P01116-2 G12V): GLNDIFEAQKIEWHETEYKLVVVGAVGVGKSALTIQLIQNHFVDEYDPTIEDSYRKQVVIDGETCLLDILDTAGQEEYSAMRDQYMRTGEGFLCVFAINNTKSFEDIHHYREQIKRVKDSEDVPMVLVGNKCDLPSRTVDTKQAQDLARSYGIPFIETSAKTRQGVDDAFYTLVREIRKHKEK
KRAS-G12D, sequence (P01116 with tags, fused parts or gaps isoform P01116-2 G12D): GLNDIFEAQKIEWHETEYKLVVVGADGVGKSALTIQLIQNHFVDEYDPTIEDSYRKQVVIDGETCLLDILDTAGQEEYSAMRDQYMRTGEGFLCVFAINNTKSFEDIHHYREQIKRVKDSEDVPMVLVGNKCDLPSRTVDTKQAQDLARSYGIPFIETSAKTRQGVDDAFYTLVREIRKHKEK
KRAS-WT, sequence (P01116 with tags, fused parts or gaps isoform P01116-2): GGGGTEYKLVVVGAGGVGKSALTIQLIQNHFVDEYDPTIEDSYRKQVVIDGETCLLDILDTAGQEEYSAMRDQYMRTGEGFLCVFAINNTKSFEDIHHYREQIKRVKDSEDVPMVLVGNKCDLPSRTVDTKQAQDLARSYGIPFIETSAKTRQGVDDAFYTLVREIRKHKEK

| Compound | IC50 (KRAS-WT) [nM] | IC50 (KRAS-G12D) [nM] | IC50 (KRAS-G12V) [nM] | IC50 (AsPC-1 cells; 2 hours compound incubation) [nM] | IC50 (AsPC-1 cells; KRAS-G12D, 2 hours) [nM] |
| --- | --- | --- | --- | --- | --- |
| Cc1cccc(-c2nccc3c2sc2nc(OC[C@@]45CCCN4C[C@H](F)C5)nc(N4CCOC[C@@](C)(O)C4)c23)c1C [Ex-120, (S)-4-(8-(2,3-dimethylpheny1)-2-(((2R,7aS)-2-fluorotetrahydro-1H-pyrrolizin-7a(5H)-yl)methoxy)pyrido[4′,3′:4,5]thi-eno[2,3-d]pyrimidin-4-yl)-6-methyl-1,4-oxazepan-6-ol] | 1080 | 403 | 269 |  | 2030 |
| C[C@@H]1C[C@@H](COc2nc(N3CCOC[C@@](C)(O)C3)c3c(n2)sc2c(-c4c(C5CC5)c(C(F)(F)F)cc5[nH]ncc45)nccc23)N(C)C1 [Ex-83, (6S)-4-(8-(5-cyclopropyl-6-(trifluoromethyl)-1H-indazol-4-yl)-2-(((2S,4R)-1,4-dimethylpyrrolidin-2-yl)methoxy)pyrido[4′,3′:4,5]thi-eno[2,3-d]pyrimidin-4-yl)-6-methyl-1,4-oxazepan-6-ol] | 130 | 80.1 | 103 |  | 1360 |
| Cc1cc2[nH]ncc2c(-c2nccc3c2sc2nc(OC[C@@]45CCCN4C[C@H](F)C5)nc(N4CCOC[C@@](C)(O)C4)c23)c1SC(F)(F)F [Ex-45, (6S)-4-(2-(((2R,7aS)-2-fluorotetrahydro-1H-pyrrolizin-7a(5H)-yl)methoxy)-8-(6-methyl-5-((trifluoromethyl)thio)-1H-indazol-4-yl)pyrido[4′,3′:4,5]thieno [2,3-d]pyrimidin-4-yl)-6-methyl-1,4-oxazepan-6-ol] | 374 | 167 | 153 |  | 1110 |
| C[C@H]1CN(C[C@@]2(COc3nc(N4CCOC[C@@](C)(O)C4)c4c(n3)sc3c(-c5c(C6(F)CC6)c(Cl)cc6[nH]ncc56)nccc34)CC2(F)F)CCO1 [Ex-244, (6S)-4-(8-(6-chloro-5-(1-fluorocyclopropyl)-1H-indazol-4-yl)-2-(((R)-2,2-difluoro-1-(((S)-2-methylmorpholino)methyl)cy-clopropyl)methoxy)pyrido[4′, 3′:4,5]thieno[2,3-d]pyrimidin-4-yl)-6-methyl-1,4-oxazepan-6-ol] | 699 | 140 | 207 | 711 |  |
| C[C@@]1(O)COCCN(c2nc(OC[C@]3(CN4CCC5(CC4)CC5)CC3(F)F)nc3sc4c(-c5c(C6(F)CC6)c(Cl)cc6[nH]ncc56)nccc4c23)C1 [Ex-233, (6S)-4-(2-(((R)-1-((6-azaspiro[2.5]octan-6-yl)methyl)-2,2-difluorocyclopropyl)methoxy)-8-(6-chloro-5-(1-fluorocyclopropyl)-1H-indazol-4-yl)pyrido[4′,3′:4,5]thieno[2,3-d]pyrimidin-4-yl)-6-methyl-1,4-oxazepan-6-ol] | 153 | 10.1 | 25.9 | 498 |  |
| CC1CCc2cccc(-c3nccc4c3sc3nc(OC[C@@]56CCCN5C[C@H](F)C6)nc(N5CCOC[C@@](C)(O)C5)c34)c21 (single isomer, unassigned) [Ex-117] | 218 | 73.6 | 96.1 |  | 720 |
| C[C@@]1(O)COCCN(c2nc(OC[C@]3(CN4CC(C#N)C4)CC3(F)F)nc3sc4c(-c5c(C6(F)CC6)c(Cl)cc6[nH]ncc56)nccc4c23)C1 [Ex-238, 1-(((IR)-1-(((8-(6-chloro-5-(1-fluorocyclopropyl)-1H-indazol-4-yl)-4-((S)-6-hydroxy-6-methyl-1,4-oxazepan-4-yl)pyrido[4′,3′:4,5]thieno[2,3-d]pyrimidin-2-yl)oxy)methyl)-2,2-difluorocyclopropyl)methyl]a-zetidine-3-carbonitrile] | 446 | 112 | 400 | 4120 |  |
| CN1CC[C@H]2C(Oc3nc(N4CCOC[C@@](C)(O)C4)c4c(n3)sc3c(-c5c(C6CC6)c(Cl)cc6[nH]ncc56)nccc34)C[C@H]21 (stereo partly drawn) [Ex-216, (6S)-4-(8-(6-chloro-5-cyclopropyl-1H-indazol-4-yl)-2-(((1R,5R,6S)-2-methyl-2-azabicyclo [3.2.0]heptan-6-yl)-oxy)pyrido[4′,3′: 4,5]thieno[2,3-d]pyrimidin-4-yl)-6-methyl-1,4-oxaze-pam-6-ol] | 1590 | 464 | 864 | 2900 |  |
| Cc1cc2[nH]ncc2c(-c2nccc3c2sc2nc(OC[C@@]45CCCN4C[C@H](F)C5)nc(N4CCOCC(O)(CF)C4)c23)c1C(F)(F)F (stereo partly drawn) [Ex-202, 6-(fluoromethyl)-4-(2-(((2R,7aS)-2-fluorotetra-hydro-1H-pyrrolizin-7a(5H)-yl)methoxy)-8-(6-methyl-5-(trifluoro-methyl)-1H-indazol-4-yl)-pyrido[4′,3′:4,5]thieno [2,3-d]pyrimidin-4-yl)-1,4-oxazepan-6-ol] | 292 | 97.5 | 229 | 701 |  |

These reach a lower IC50 (KRAS-WT). Values come first.

| IC50 (KRAS-WT) [nM] | IC50 (KRAS-G12D) [nM] | IC50 (KRAS-G12V) [nM] | IC50 (AsPC-1 cells; 2 hours compound incubation) [nM] | IC50 (AsPC-1 cells; KRAS-G12D, 2 hours) [nM] | Compound |
| --- | --- | --- | --- | --- | --- |
| 104 | 29.3 | 46 | 246 |  | C=C1CN2C[C@@H](F)C[C@@]2(COc2nc(N3CCOC[C@@](C)(O)C3)c3c(n2)sc2c(-c4c(C5CC5)c(Cl)cc5[nH]ncc45)nccc23)C1 [Ex-222, (6S)-4-(8-(6-chloro-5-cyclopropyl-1H-indazol-4-yl)-2-(((2S,7aR)-2-fluoro-6-methylenetetra-hydro-1H-pyrrol-izin-7a(5H)-yl)methoxy)pyrido [4′,3′:4,5]thieno[2,3-d]pyrimidin-4-yl)-6-methyl-1,4-oxaze-pan-6-ol] |
| 91.2 | 26.4 | 46.7 |  | 465 | C[C@@]1(O)COCCN(c2nc(OC[C@@]34CCCN3C[C@H](F)C4)nc3sc4c(-c5c(C6(F)CC6)c(F)cc6[nH]ncc56)nccc4c23)C1 [Ex-53, (6S)-4-(8-(6-fluoro-5-(1-fluorocyclopropyl)-1H-indazol-4-yl)-2-(((2R,7aS)-2-fluorotetrahydro-1H-pyrrolizin-7a(5H)-yl)methoxy)pyrido[4′,3′:4,5]thi-eno[2,3-d]pyrimidin-4-yl)-6-methyl-1,4-oxazepan-6-ol] |
| 74.1 | 39.6 | 59.3 |  | 1930 | COC(=O)c1cc2[nH]ncc2c(-c2nccc3c2sc2nc(OC[C@@]45CCCN4C[C@H](F)C5)nc(N4CCOC[C@@](C)(O)C4)c23)c1C1CC1 [Ex-49, Methyl 5-cyclopropyl-4-(2-(((2R,7aS)-2-fluorotetrahydro-1H-pyrrolizin-7a(5H)-yl)methoxy)-4-((S)-6-hydroxy-6-methyl-1,4-oxazepan-4-yl)pyrido[4′,3′:4,5]thieno [2,3-d]pyrimidin-8-yl)-1H-indazole-6-carboxylate] |
| 59.7 | 6.96 | 91.9 | 315 |  | C[C@@]1(O)COCCN(c2nc(OC[C@]3(CN4C[C@H]5CCO[C@H]5C4)CC3(F)F)nc3sc4c(-c5c(C6(F)CC6)c(Cl)cc6[nH]ncc56)nccc4c23)C1 [Ex-254, (6S)-4-(8-(6-chloro-5-(1-fluorocyclopropyl)-1H-indazol-4-yl)-2-(((R)-2,2-difluoro-1-(((3aR,6aR)-hexahydro-5H-furo[2,3-c]pyrrol-5-yl)methyl)cyclopropyl)metho-xy)pyrido[4′,3′:4,5]thieno[2,3-d]pyrimidin-4-yl)-6-methyl-1,4-oxazepan-6-ol] |
| 38.8 | 7 | 25.2 | 124 |  | COCC12CC(CN1C[C@@]1(COc3nc(N4CCOC[C@@](C)(O)C4)c4c(n3)sc3c(-c5c(C6(F)CC6)c(Cl)cc6[nH]ncc56)nccc34)CC1(F)F)C2 [Ex-258, (6S)-4-(8-(6-chloro-5-(1-fluorocyclopropyl)-1H-indazol-4-yl)-2-(((R)-2,2-difluoro-1-((1-(methoxymethyl)-2-azabicyclo[2.1.1]hexan-2-yl)methyl)cyclopropyl)metho-xy)pyrido[4′,3′:4,5]thieno[2,3-d]pyrimidin-4-yl)-6-methyl-1,4-oxazepan-6-ol] |
| 33.8 | 14.6 | 21.2 |  | 361 | C[C@@H]1CC[C@@H](COc2nc(N3CCOC[C@@](C)(O)C3)c3c(n2)sc2c(-c4c(C5CC5)c(C(F)(F)F)cc5[nH]ncc45)nccc23)N1C [Ex-86, (6S)-4-(8-(5-cyclopropyl-6-(trifluoromethyl)-1H-indazol-4-yl)-2-(((2S,5R)-1,5-dimethylpyrrolidin-2-yl)methoxy)pyrido[4′,3′:4,5]thi-eno[2,3-d]pyrimidin-4-yl)-6-methyl-1,4-oxazepan-6-ol] |
| 10.2 | 5.28 | 15.9 |  | 41.5 | CN(C)C[C@@]1(COc2nc(N3CCOC[C@@](C)(O)C3)c3c(n2)sc2c(-c4c(C5CC5)c(Cl)cc5[nH]ncc45)nncc23)CC1(F)F [Ex-287, (6S)-4-(8-(6-chloro-5-cyclopropyl-1H-indazol-4-yl)-2-(((R)-1-((dimethylamino)methyl)-2,2-difluorocyclopropyl)meth-oxy)pyrimido[5′,4′:4,5]thi-eno[2,3-d]pyridazin-4-yl)-6-methyl-1,4-oxazepan-6-ol] |
